Where a SMILES comes first, the peptide text is derived from it. [ ]: non-standard residue; d: D form. The star is where a group is joined. X1 = CC(C)CCC[C@@H](C)[C@H]1CC[C@H]2[C@@H]3CC=C4C[C@@H](OC(=O)CCOCCOCCOCCOCCNC(=O)C*)CC[C@]4(C)[C@H]3CC[C@]12C; Pentadecanoyl = CCCCCCCCCCCCCCC(=O)*; Palmitoyl = CCCCCCCCCCCCCCCC(=O)*; Tridecanoyl = CCCCCCCCCCCCC(=O)*; Nle = CCCC[C@H](N)C(=O)O
Tests used:
[1] = MTT cytotoxicity assay on Vero cells; format: cell-based; details: MTT, calculated after 2 h of peptide treatment
[2] = system: MeV; details: 2 h
[3] = system: influenza virus (subtype H1N1); details: influenza virus (subtype, 2 h)
[4] = Table 2; cited from earlier work

SMILES	CC50 [1]	IC50 [2]	IC90 [2]	IC50 [3]	IC90 [3]	%Helix in DPC [4]
CCCCCCCCCCCCCCC(=O)N[C@@H](Cc1ccccc1)C(=O)N[C@H](C(=O)N1CCC[C@H]1C(=O)N[C@@H](Cc1c[nH]c2ccccc12)C(=O)N[C@@H](Cc1ccccc1)C(=O)N[C@@H](CO)C(=O)N[C@@H](CCCCN)C(=O)N[C@@H](Cc1ccccc1)C(=O)N[C@H](CC(C)C)C(=O)N[C@@H](CCCC)C(=O)N[C@@H](CCCNC(=N)N)C(=O)N[C@H](C(=O)N[C@@H](CC(C)C)C(N)=O)[C@@H](C)CC)C(C)C [TL6.7, H-Pentadecanoic acid-Phe-Val-Pro-Trp-Phe-Ser-Lys-Phe-DLeu-Nle-Arg-Ile-Leu-NH2] (Pentadecanoyl-FVPWFSKF[dL][Nle]RIL-NH2)	> 100 µM	37.8 µM	> 50 µM	3.48 µM	8.1 µM	
CCCCCCCCCCCCCCCC(=O)N[C@@H](Cc1ccccc1)C(=O)N[C@H](C(=O)N1CCC[C@H]1C(=O)N[C@@H](Cc1c[nH]c2ccccc12)C(=O)N[C@@H](Cc1ccccc1)C(=O)N[C@@H](CO)C(=O)N[C@@H](CCCCN)C(=O)N[C@@H](Cc1ccccc1)C(=O)N[C@H](CC(C)C)C(=O)N[C@@H](CCCC)C(=O)N[C@@H](CCCNC(=N)N)C(=O)N[C@H](C(=O)N[C@@H](CC(C)C)C(N)=O)[C@@H](C)CC)C(C)C [TL6.8, H-Palmitic acid-Phe-Val-Pro-Trp-Phe-Ser-Lys-Phe-DLeu-Nle-Arg-Ile-Leu-NH2] (Palmitoyl-FVPWFSKF[dL][Nle]RIL-NH2)	> 100 µM	39.4 µM	> 50 µM	4.77 µM	7.11 µM	
CC[C@H](C)[C@H](NC(=O)[C@H](CCCNC(=N)N)NC(=O)[C@H]1CCCN1C(=O)[C@@H](CC(C)C)NC(=O)[C@H](Cc1ccccc1)NC(=O)[C@H](CCCCN)NC(=O)[C@H](CO)NC(=O)[C@H](Cc1ccccc1)NC(=O)[C@H](Cc1c[nH]c2ccccc12)NC(=O)[C@@H]1CCCN1C(=O)[C@@H](NC(=O)[C@@H](N)Cc1ccccc1)C(C)C)C(=O)N[C@@H](CC(C)C)C(N)=O [TL3, H-Phe-Val-Pro-Trp-Phe-Ser-Lys-Phe-DLeu-DPro-Arg-Ile-Leu-NH2] (H-FVPWFSKF[dL][dP]RIL-NH2)	> 100 µM	> 50 µM	> 50 µM	> 50 µM	> 50 µM	8%
CCCC[C@H](NC(=O)[C@@H](CC(C)C)NC(=O)[C@H](Cc1ccccc1)NC(=O)[C@H](CCCCN)NC(=O)[C@H](CO)NC(=O)[C@H](Cc1ccccc1)NC(=O)[C@H](Cc1c[nH]c2ccccc12)NC(=O)[C@@H]1CCCN1C(=O)[C@@H](NC(=O)[C@@H](N)Cc1ccccc1)C(C)C)C(=O)N[C@@H](CCCNC(=N)N)C(=O)N[C@H](C(=O)N[C@@H](CC(C)C)C(=O)N[C@@H](CSCC(=O)NCCOCCOCCOCCOCCC(=O)O[C@H]1CC[C@@]2(C)C(=CC[C@H]3[C@@H]4CC[C@H]([C@H](C)CCCC(C)C)[C@@]4(C)CC[C@@H]32)C1)C(N)=O)[C@@H](C)CC [TL6.1, H-Phe-Val-Pro-Trp-Phe-Ser-Lys-Phe-DLeu-Nle-Arg-Ile-Leu-Cys-[PEG4-Cholesterol]-NH2] (H-FVPWFSKF[dL][Nle]RILC(X1)-NH2)	> 100 µM	39.1 µM	> 50 µM	5.55 µM	10 µM	
CCCCCCCCCCCCC(=O)N[C@@H](Cc1ccccc1)C(=O)N[C@H](C(=O)N1CCC[C@H]1C(=O)N[C@@H](Cc1c[nH]c2ccccc12)C(=O)N[C@@H](Cc1ccccc1)C(=O)N[C@@H](CO)C(=O)N[C@@H](CCCCN)C(=O)N[C@@H](Cc1ccccc1)C(=O)N[C@H](CC(C)C)C(=O)N[C@@H](CCCC)C(=O)N[C@@H](CCCNC(=N)N)C(=O)N[C@H](C(=O)N[C@@H](CC(C)C)C(N)=O)[C@@H](C)CC)C(C)C [TL6.6, H-Tridecanoic acid-Phe-Val-Pro-Trp-Phe-Ser-Lys-Phe-DLeu-Nle-Arg-Ile-Leu-NH2] (Tridecanoyl-FVPWFSKF[dL][Nle]RIL-NH2)	> 100 µM	33.4 µM	> 50 µM	3.39 µM	6.66 µM	
